Reference: patent US11202792B2, “CD99 inhibitors and their uses” (GEORGETOWN UNIVERSITY, priority 2016, dated 2021)

Key:
[1] = biological target: T1, CD99-ECD (extracellular domain of human CD99) (Homo sapiens, UniProt P14209); experiment: SPR binding, CD99-ECD purified from bacteria
T1 construct: the extracellular domain (Asp23-Asp122) of human CD99; made in house; host or cells: Escherichia coli BL21 (DE3)
T1 sequence (P14209 23-122): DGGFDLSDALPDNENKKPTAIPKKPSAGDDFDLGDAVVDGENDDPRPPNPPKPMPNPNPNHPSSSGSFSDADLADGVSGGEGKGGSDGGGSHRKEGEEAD
From the text: The Champion™ pET104 BioEase™ Gateway® Expression System (Invitrogen (Carlsbad, Calif.)) was used to produce CD99-ECD fused with a N-terminal biotin tag, as directed by the manufacturer's instructions. Briefly, the DNA sequence encoding the extracellular domain (Asp23-Asp122) of human CD99 was amplified by PCR using pcDNA3.1 expression vector (Life Technologies (Carlsbad, Calif.)) carrying the full-length human CD99 cDNA transcript variant 1 as template. The primers were designed to include an additional C-terminal 6×His tag in the protein. The PCR product was gel purified with a QIAquick gel extraction kit (Qiagen (Hilden, Germany)) and subcloned into the pDONR 221 entry vector. The entry clone was then subjected to a recombination reaction with pET104.1-DEST destination vector, an expression vector with a N-terminal BioEase tag. The presence of an insert was confirmed by DNA sequencing.
CD99-ECD was expressed in Escherichia coli BL21 (DE3) cells. A saturated overnight culture of cells was diluted by 20-fold into fresh LB medium containing 100 μg/mL ampicillin. To induce the expression of CD99-ECD, cells were grown to OD600nm 0.5-0.7 at 37° C. and induced by the addition of isopropyl-β-D-thiogalactopyranoside to a final concentration of 1 mmol/L. The cultures were grown for an additional 3 h at 37° C. Cells were harvested by centrifugation at 8,000×g for 15 min, resuspended in 50 mmol/L sodium phosphate buffer, pH 7.4, containing 500 mmol/L NaCl, 10 mmol/L imidazole and 1 Complete EDTA-free protease inhibitor tablet/50 mL (Roche Diagnostics), and lysed by sonication. […] Protein fractions were finally eluted with a linear gradient of imidazole (10 to 1000 mmol/L) in the same buffer. The purity of the protein was assessed by SDS-PAGE followed by Coomassie staining. The eluted fractions were stored at −80° C. for further use. […]

IOR/MOS OS cells = experiment: Cell viability IC50, IOR/MOS; format: cell-based; conditions: Homo sapiens
Method: The plate was installed into the RTCA system, and the electrical impedance (represented as cell index) was measured every 10 min.
To investigate the relationship between the level of CD99 expression and drug sensitivity, the endogenous expression of CD99 was determined in a panel of 9 ES and 13 non-ES cell lines. The recombinant purified CD99-ECD protein was used to generate standard curves for immunoquantification of CD99 expression by immunoblotting (FIGS. 6B and 6C).

[2] = system: CD99-transfected SAOS-2 and U-2 OS cells; experiment: Real-time proliferation (xCELLigence) of OS cells with forced CD99 expression; format: cell-based, human; conditions: dose-dependent
Method: U-2 OS and SAOS-2 cells were transfected with pcDNA3.1 expression vector carrying the human full-length CD99 transcript variant 1 cDNA using the X-tremeGene 9 DNA transfection reagent (Roche Diagnostics) according to the manufacturer's recommendations. The expression of CD99 was assessed after 48 h by immunoblotting.
OS cells express low levels of CD99 and the forced ectopic expression of CD99 reduces their growth. To test whether cladribine can rescue the reduced proliferation phenotype induced by overexpression of CD99, U-2 OS and SAOS-2 cells were transiently transfected with a mammalian expression vector containing cDNA encoding full length human CD99. As expected, CD99-forced expression suppressed cell proliferation compared with empty-vector transfected cells, which was rescued by the addition of cladribine in a dose-dependent manner (FIGS. 7C-D and FIG. 9).

U-2 OS cells = experiment: Cell cycle analysis by flow cytometry, OS cells; format: cell-based, human; conditions: 48 h, U-2 OS compared with ES cells
Method: For the evaluation of cell cycle, cell cultures were incubated with 10 μmol/L bromodeoxyuridine (BrdU) (Sigma-Aldrich) for 1 h in a CO2 atmosphere at 37° C. Harvested cells were fixed in ice-cold 70% ethanol for 30 min. After DNA denaturation with 2 N HCl for 30 min at room temperature, cells were washed with 0.1 M Na2B4O7, pH 8.5 and processed for indirect immunofluorescence staining, using α-BrdU (BD Biosciences (San Jose, Calif.)) diluted 1:4 as a primary MAb and α-mouse FITC (1:100—Thermo Scientific (Waltham, Mass.)) as a secondary antibody. After treatment with 0.5 mg/ml RNase and staining with 20 μg/ml propidium iodide, cells were and analyzed by flow cytometry (FACSCalibur; Becton Dickinson (Franklin Lakes, N.J.)) for cell cycle evaluation and for assessing cell death by DNA content analysis.

| SMILES | Kd [1] [µM] | IC50 (IOR/MOS OS cells) [µM] | rescue of reduced cell proliferation induced by CD99 expression [2] | cell cycle effect (U-2 OS cells) |
| --- | --- | --- | --- | --- |
| Nc1nc(Cl)nc2c1ncn2[C@H]1C[C@H](O)[C@@H](CO)O1 [cladribine] | 3.8 ± 2.4 | > 30 | rescued | more pronounced |
| Nc1nc(Cl)nc2c1ncn2[C@@H]1O[C@H](CO)[C@@H](O)[C@@H]1F [clofarabine] | 4.6 ± 3.2 | > 10 | – | – |
